Values joined by “and” are separate entries in the source; they are usually repeats but may differ in a detail not shown here. Equal entries are not always repeated. Active and inactive are the calls of the source. No rule for the calls is given here.

This test concerns in vivo angiogenesis, blood vessel count. In words: reduction of blood vessel formation in vivo – HTS, in vivo study (AID 732).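 Also: zebrafish embryos dosed at one day post fertilization; 0% = reference inhibitor and 100% = plate mean.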 Particulars: stronger effect = lower value;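 tested at 30 µM in the well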.
Consider `COc1ccccc1N1CCN(CCCNc2c(C)c(=O)n(C)c(=O)n2C)CC1`, for which the vessel count % control was 70.6% (inactive).

Turning to `NCCCC(N)(C(=O)O)C(F)F` (stereo not drawn), the vessel count % control was 80.5% (inactive).

For `O=C1N(c2ccccc2)c2ccccc2C1(Cc1ccncc1)Cc1ccncc1`, the vessel count % control was 96.6% (inactive).

With `CN1CCC(=C2c3ccccc3CC(=O)c3sccc32)CC1`, the vessel count % control is 105% (inactive).

In the case of `CC#C[C@]1(O)CC[C@H]2[C@@H]3CCC4=CC(=O)CCC4=C3[C@@H](c3ccc(N(C)C)cc3)C[C@@]21C`, the vessel count % control is 106% (inactive).

For the compound `CC(C)(C)c1cc(C=C(C#N)C#N)cc(C(C)(C)C)c1O`, the vessel count % control was 0% (inactive).

`CCCN1CCC[C@@H]2Cc3[nH]ncc3C[C@H]21`: the vessel count % control was 129% (inactive) and 112% (inactive).

`CC(C)NCC(O)COc1ccc(CC(N)=O)cc1` (stereo not drawn): the vessel count % control was 102% (inactive).

As for `O=c1oc(Cl)c(Cl)c2ccccc12`, the vessel count % control was 104% (inactive).

Regarding `COc1ccc([C@@H]2Sc3ccccc3N(CCN(C)C)C(=O)[C@@H]2OC(C)=O)cc1`, the vessel count % control was 107% (inactive).

`CN(C)CCCCSC(=N)N`: the vessel count % control was 105% (inactive).

Consider `Nc1ncn([C@@H]2O[C@H](CO)[C@@H](O)[C@H]2O)c(=O)n1`, for which the vessel count % control is 65.2% (inactive).

With `CC1=NN=C(c2ccc(N)cc2)c2cc3c(cc2C1)OCO3`, the vessel count % control was 96.1% (inactive).

For `N=C(N)SCCc1cccc(CCSC(=N)N)c1`, the vessel count % control is 106% (inactive).

Regarding `NCCc1c[nH]c2ccc(C(N)=O)cc12`, the vessel count % control was 112% (inactive).

Regarding `COc1cc2c(CCNC(C)=O)c[nH]c2cc1Cl`, the vessel count % control is 71.1% (inactive).

As for `O=C(O)[C@@H]1C[C@H](C(=O)O)N1`, the vessel count % control was 59.7% (inactive).

Regarding `CN(C)CCOC(C)(c1ccccc1)c1ccccn1` (stereo not drawn), the vessel count % control was 95.7% (inactive).

For the compound `O=C(O)c1cc(=O)c2ccc(Cl)cc2[nH]1`, the vessel count % control was 110% (inactive).

Turning to `COc1ccc2c(c1)c(CC(=O)O)c(C)n2C(=O)c1ccc(Cl)cc1`, the vessel count % control is 112% (inactive).

In the case of `Nc1c2c(nc3ccccc13)CCCC2O` (stereo not drawn), the vessel count % control was 86.4% (inactive).

As to `CC(C)(C)NCC(O)c1cc(O)cc(O)c1` (stereo not drawn), the vessel count % control is 93.9% (inactive).

As for `O=c1n(CCCN2CCN(c3cccc(Cl)c3)CC2)nc2ccccn12`, the vessel count % control was 88% (inactive).

With `CCCCCCCCCCCCCCCCCCNC(=O)OCC(COP(=O)([O-])OCC[n+]1ccsc1)OC` (stereo not drawn), the vessel count % control is 92% (inactive).

Consider `CCN(c1nc(N)c(C(=O)N=C(N)N)nc1Cl)C(C)C`, for which the vessel count % control is 73.9% (inactive).

As to `C=CCN1CCC2(C)c3cc(O)ccc3CC1C2C` (stereo not drawn), the vessel count % control was 109% (inactive).

For `CC(=O)SC1CC2=CC(=O)CC[C@]2(C)C2CC[C@@]3(C)C(CC[C@@]34CCC(=O)O4)C12` (stereo partly drawn), the vessel count % control was 85.3% (inactive).

Turning to `CNCC[C@@H](Oc1ccc(C(F)(F)F)cc1)c1ccccc1`, the vessel count % control is 113% (inactive).

As for `COCCCC/C(=N\OCCN)c1ccc(C(F)(F)F)cc1`, the vessel count % control was 145% (inactive).

Consider `COc1ccc(C2CNC(=O)C2)cc1OC1CCCC1` (stereo not drawn), for which the vessel count % control was 96.6% (inactive).

Consider `NCC(O)c1cc(O)c(O)cc1F` (stereo not drawn), for which the vessel count % control was 87.4% (inactive).

Consider `CC(C)C[C@H](NC(=O)C1OC1C(=O)O)C(=O)NCCCCN=C(N)N` (stereo partly drawn), for which the vessel count % control is 108% (inactive).

As to `COC(=O)N1CCN(C(=O)Cc2ccc(Cl)c(Cl)c2)C(CN2CCCC2)C1` (stereo not drawn), the vessel count % control was 116% (inactive).

As for `COc1ccc2c3c1O[C@H]1C(=O)CC[C@@]4(O)C(C2)N(CC2CC2)CCC314` (stereo partly drawn), the vessel count % control was 124% (inactive).

Take `O=S(=O)(c1cccc2c(I)cccc12)N1CCCNCC1`: the vessel count % control is 114% (inactive).

In the case of `OCC1O[C@H](O)C(Cl)C(O)C1O` (stereo partly drawn), the vessel count % control was 100% (inactive).

As to `COc1cc(OC)c(/C=C2/C(=O)Nc3ccccc32)c(OC)c1`, the vessel count % control is 44.4% (inactive).

For `CCCCOc1cc(CC2CNC(=O)N2)ccc1OC` (stereo not drawn), the vessel count % control was 106% (inactive).

In the case of `NC(=O)COc1c(F)cc(SCCNS(=O)(=O)c2ccccc2)cc1F`, the vessel count % control was 116% (inactive).

With `COc1ccc(C(=O)NCc2cccnc2)cc1C(=O)NCc1cccnc1`, the vessel count % control is 109% (inactive).

Consider `O=C1C(c2c(O)[nH]c3c(Cl)cc(Cl)cc23)=Nc2ccccc21`, for which the vessel count % control is 60.2% (inactive).

On to `C[C@]12Cc3cn4c(nc3C=C1CCC1C2CC[C@@]2(C)[C@H]1CC[C@@]2(O)C#N)nc1ccccc14` (stereo partly drawn), for which the vessel count % control was 97% (inactive).

Take `CCCNCC(O)COc1ccccc1C(=O)CCc1ccccc1` (stereo not drawn): the vessel count % control is 102% (inactive).

As to `CCN(CC)CCOC(=O)c1cc(Cl)c(N)cc1OC`, the vessel count % control is 114% (inactive).

With `C[N+]1(C)CCc2cc3c(cc2[C@H]1[C@@H]1OC(=O)c2c1ccc1c2OCO1)OCO3`, the vessel count % control was 85.4% (inactive).

Regarding `OC(CCN1CCCCC1)(c1ccccc1)C1CCCCC1` (stereo not drawn), the vessel count % control is 98.5% (inactive).

Take `S=C(Nc1ccccc1)Nc1nccs1`: the vessel count % control is 61.2% (inactive).

On to `COc1ccccc1N1CCN(CCCCN2C(=O)c3ccccc3C2=O)CC1`, for which the vessel count % control is 117% (inactive).

For `N#CC(C#N)=Cc1ccc(O)c(O)c1`, the vessel count % control is 119% (inactive).

For the compound `NC(Cc1cccc(-c2ccccc2CP(=O)(O)O)c1)C(=O)O` (stereo not drawn), the vessel count % control is 106% (inactive).

`c1cnc2c(c1)ccc1cccnc12`: the vessel count % control was 0% (inactive).

`CN1CCN(CC/C=C2/c3ccccc3Sc3ccc(S(=O)(=O)N(C)C)cc32)CC1`: the vessel count % control is 98.3% (inactive).

Take `NC1CCN(O)C1=O` (stereo not drawn): the vessel count % control was 115% (inactive).

Take `CN1C[C@@H](CS(=O)(=O)N(C)C)C[C@@H]2c3cccc4c3c(cn4C)C[C@H]21`: the vessel count % control was 103% (inactive).

For the compound `NCCCCC(=O)O`, the vessel count % control is 84.3% (inactive).

For the compound `Clc1ccc(N2CC3CCC(C2)N3)nn1`, the vessel count % control is 106% (inactive).

As for `CC(CCc1ccccc1)NC(C)C(O)c1ccc(O)cc1` (stereo not drawn), the vessel count % control was 98.4% (inactive).

For the compound `Oc1ccc(C2CNCc3sccc32)cc1O` (stereo not drawn), the vessel count % control was 94.7% (inactive).

`C#CCN1C(C)=C(C(=O)OC)C(c2cccc([N+](=O)[O-])c2)C(C(=O)OCC)=C1C` (stereo not drawn): the vessel count % control was 132% (inactive).

As to `O=C(Nc1cccc(C(=O)Nc2ccc(S(=O)(=O)O)c3cc(S(=O)(=O)O)cc(S(=O)(=O)O)c23)c1)Nc1cccc(C(=O)Nc2ccc(S(=O)(=O)O)c3cc(S(=O)(=O)O)cc(S(=O)(=O)O)c23)c1`, the vessel count % control was 88.2% (inactive).

With `O=C1NCC2(CCN(CCc3ccccc3)CC2)O1`, the vessel count % control was 110% (inactive).

Turning to `OC[C@H]1O[C@@H](n2cnc3c(Nc4ccccc4)ncnc32)C(O)[C@H]1O` (stereo partly drawn), the vessel count % control was 110% (inactive).

In the case of `Clc1ccc(C(c2ccccc2Cl)C(Cl)Cl)cc1` (stereo not drawn), the vessel count % control is 92.7% (inactive).

Regarding `O=C(/C=C/c1ccc(O)cc1)c1ccc(O)cc1O`, the vessel count % control was 98.4% (inactive).

Take `Cn1c(=O)c2[nH]cnc2n(C)c1=O`: the vessel count % control is 105% (inactive).

In the case of `O=c1cc(-c2ccc(O)cc2)oc2cc(O)cc(O)c12`, the vessel count % control is 87.4% (inactive).

On to `CCCn1c(C)c(C(=O)c2ccc3ccccc3c2)c2ccccc21`, for which the vessel count % control is 110% (inactive).

As for `CC(=O)NBr`, the vessel count % control is 130% (inactive).

For `NC[C@H](O)c1ccc(O)c(O)c1`, the vessel count % control was 86.6% (inactive).

For `COc1ccc2c(c1)c(CC(=O)O)c(C)n2C(=O)c1ccccc1`, the vessel count % control is 116% (inactive).

In the case of `O=Nc1c(-c2c(O)[nH]c3c(Cl)cc(Cl)cc23)[nH]c2ccc(Br)cc12`, the vessel count % control is 126% (inactive).

For the compound `S=C=Nc1cccc(C2(N3CCCCC3)CCCCC2)c1`, the vessel count % control is 91% (inactive).

In the case of `CC(N)C1CCC(C(=O)Nc2ccncc2)CC1` (stereo not drawn), the vessel count % control is 111% (inactive).

For `N[C@H](CCC(=O)NCS(=O)(=O)O)C(=O)O`, the vessel count % control was 102% (inactive).

In the case of `CCCC[N+]1(C)C2CC(OC(=O)[C@H](CO)c3ccccc3)CC1C1OC12` (stereo partly drawn), the vessel count % control was 107% (inactive).

With `Oc1[nH]c2c(Cl)cc(Cl)cc2c1C1=Nc2ccc(Br)cc2/C1=N\OCCN1CCNCC1`, the vessel count % control is 90.9% (inactive).

As for `CCC1(O)CC2CN(CCc3c([nH]c4ccccc34)[C@@](C(=O)OC)(c3cc4c(cc3OC)N(C=O)C3[C@]45CCN4CC=C[C@@](CC)([C@@H](OC(C)=O)[C@]3(O)C(=O)OC)[C@H]45)C2)C1` (stereo partly drawn), the vessel count % control was 109% (inactive).

`O=C(O)CCC/C=C\C[C@@H]1[C@@H](/C=C/[C@H](O)C2Cc3ccccc3C2)[C@@H](F)C[C@@H]1O`: the vessel count % control is 121% (inactive).

In the case of `O=c1ccn([C@@H]2O[C@H](COP(=O)(O)OP(=O)(O)O)[C@@H](O)[C@H]2O)c(=O)[nH]1`, the vessel count % control is 140% (inactive).

With `c1ccc2nc(C3=NCCN3)ccc2c1`, the vessel count % control is 97.4% (inactive).

On to `[Li+]`, for which the vessel count % control was 0% (inactive).

For the compound `Nc1ncnc2c1ncn2[C@@H]1O[C@H](CO)[C@H](O)C1O` (stereo partly drawn), the vessel count % control was 105% (inactive).

`CC(C)Cc1ccc(C(C)C(=O)O)cc1` (stereo not drawn): the vessel count % control is 138% (inactive).

Regarding `COC(=O)C(C)(N)Cc1ccc(O)cc1` (stereo not drawn), the vessel count % control is 123% (inactive).

Turning to `C=CCN1CC[C@]23c4c5ccc(O)c4O[C@H]2/C(=N/NC(=O)c2ccccc2)CC[C@@]3(O)[C@H]1C5`, the vessel count % control was 120% (inactive).

Regarding `O=c1ccc2ccc(O)c(O)c2o1`, the vessel count % control was 121% (inactive).

As to `CC1OC1P(=O)(O)O` (stereo not drawn), the vessel count % control was 102% (inactive).

For `NCCc1ccc(S(=O)(=O)F)cc1`, the vessel count % control is 87.5% (inactive).
